Laboratory results as given in US7618960B2, “Morpholine type cinnamide compound” (Eisai R&D Management Co., Ltd., priority 2005, dated 2009).
pIC50: −log10 of the molar value.

test system: Aβ42 production; assay: Quantification of Aβ peptide in culture of neurons from rat fetus brain (Aβ ELISA); type: cell-based; settings: Neuron, 72 h; rat primary neuronal culture (cerebral cortex, embryonic day 18 Wistar rats); medium collected three days after addition of compound; Aβx-42 ELISA; read-out: Activity for reducing Aβ42 production IC50
Procedure: Quantification of Aβ Peptide in Culture of Neurons from Rat Fetus Brain
(1) Rat Primary Neuronal Culture
Primary neuronal cultures were prepared from the cerebral cortex of embryonic day 18 Wistar rats (Charles River Japan, Yokohama, Japan). Specifically, the embryos were aseptically removed from pregnant rats under ether anesthesia. The brain was isolated from the embryo and immersed in an ice-cold L-15 medium (Invitrogen Corp. Cat #11415-064, Carlsbad, Calif., USA, or SIGMA L1518, for example). The cerebral cortex was collected from the isolated brain under a stereoscopic microscope. The cerebral cortex fragments collected were enzymatically treated in an enzyme solution containing 0.25% trypsin (Invitrogen Corp. Cat #15050-065, Carlsbad, Calif., USA) and 0.01% DNase (Sigma D5025, St. Louis, Mo., USA) at 37° C. for 30 minutes to disperse the cells. Here, the enzymatic reaction was stopped by adding inactivated horse serum to the solution. The enzymatically treated solution was centrifuged at 1,500 rpm for five minutes to remove the supernatant. 5 to 10 ml of a medium was added to the resulting cell mass. Neurobasal medium (Invitrogen Corp. Cat #21103-049, Carlsbad, Calif., USA) supplemented with 2% B27 supplement (Invitrogen Corp. Cat #17504-044, Carlsbad, Calif., USA), 25 μM 2-mercaptoethanol (2-ME, WAKO Cat #139-06861, Osaka, Japan), 0.5 mM L-glutamine (Invitrogen Corp. Cat #25030-081, Carlsbad, Calif., USA), and Antibiotics-Antimycotics (Invitrogen Corp. Cat #15240-062, Carlsbad, Calif., USA) was used as the medium (Neurobasal/B27/2-ME). However, the above Neurobasal medium not supplemented with 2-ME (Neurobasal/B27) was used for the assay. The cells were redispersed by mild pipetting of the cell mass to which the medium was added. The cell dispersion was filtered through a 40-μm nylon mesh (Cell Strainer, Cat #35-2340, Becton Dickinson Labware, Franklin Lakes, N.J., USA) to remove the remaining cell mass, and thus a neuronal cell suspension was obtained. The neuronal cell suspension was diluted with the medium and then plated in a volume of 100 μl/well at an initial cell density of 5×10^5 cells/cm^2 in a 96-well polystyrene culture plate pre-coated with poly-L or D-lysine (Falcon Cat #35-3075, Becton Dickinson Labware, Franklin Lakes, N.J., USA coated with poly-L-lysine using the method shown below, or BIOCOAT™ cell environments Poly-D-lysine cell ware 96-well plate, Cat #35-6461, Becton Dickinson Labware, Franklin Lakes, N.J., USA). Poly-L-lysine coating was carried out as follows. 100 μg/ml of a poly-L-lysine (SIGMA P2636, St. Louis, Mo., USA) solution was aseptically prepared with a 0.15 M borate buffer (pH 8.5). 100 μl/well of the solution was added to the 96-well polystyrene culture plate and incubated at room temperature for one or more hours or at 4° C. overnight or longer. The coated 96-well polystyrene culture plate was washed with sterile water four or more times, and then dried or rinsed with, for example, sterile PBS or medium, and used for cell plating. The plated cells were cultured in the culture plate at 37° C. in 5% […]-95% air for one day. Then, the total amount of the medium was replaced with a fresh Neurobasal™/B27/2-ME medium, and then the cells were cultured for further three days.
The drug was added to the culture plate on Day 4 of culture as follows. The total amount of the medium was removed from the wells, and 180 μl/well of Neurobasal medium not containing 2-ME and containing 2% B-27 (Neurobasal/B27) was added thereto. A solution of the test compound in dimethyl sulfoxide (hereinafter abbreviated as DMSO) was diluted with Neurobasal/B27 so that the initial concentration was at 10-fold of the final concentration. 20 μl/well of the dilution was added to and sufficiently mixed with the medium. The final DMSO concentration was 1% or less. Only DMSO was added to the control group.
The cells were cultured for three days after addition of the compound, and the total amount of the medium was collected. […]

Compared with `COc1cc(/C=C2\O[C@@H](C)CN([C@@H](C)c3ccc(Cl)cn3)C2=O)ccc1-n1cnc(C)c1` [Example 20, (Z)-(S)-4-[(S)-1-(5-chloropyridin-2-yl)ethyl]-2-[1-[3-methoxy-4-(4-methyl-1H-imidazol-1-yl)phenyl]methylidene]-6-methylmorpholin-3-one], `COc1cc(/C=C2\O[C@@H](C)CN([C@@H](C)c3ccc(Cl)nc3)C2=O)ccc1-n1cnc(C)c1` [Example 18, (Z)-(S)-4-[(S)-1-(6-chloropyridin-3-yl)ethyl]-2-[1-[3-methoxy-4-(4-methyl-1H-imidazol-1-yl)phenyl]methylidene]-6-methylmorpholin-3-one] is 0.35 log units lower in pIC50: 7.09 for the first, 6.74 for the second. The first is the more potent here.

First: COc1cc(/C=C2\OC(C)(C)CN([C@H](c3cc(F)c(F)c(F)c3)[C@@H](C)O)C2=O)ccc1-n1cnc(C)c1 [Example 27, (Z)-4-[(1R,2R)-2-hydroxy-1-(3,4,5-trifluorophenyl)propyl]-2-[1-[3-methoxy-4-(4-methyl-1H-imidazol-1-yl)phenyl]methylidene]-6,6-dimethylmorpholin-3-one]
Second: COc1cc(/C=C2\OC(C)(C)CN([C@H](c3ccc(F)c(F)c3)[C@@H](C)O)C2=O)ccc1-n1cnc(C)c1 [Example 35, (Z)-4-[(1R,2R)-1-(3,4-difluorophenyl)-2-hydroxypropyl]-2-[1-[3-methoxy-4-(methylimidazol-1-yl)phenyl]methylidene]-6,6-dimethylmorpholin-3-one]
The pIC50 of the first is 0.66 log units higher: 8.30 for the first, 7.64 for the second.

Going from `COc1cc(/C=C2\OC[C@H]3CCC[C@@H](c4ccc(Cl)cc4)N3C2=O)ccc1-n1cnc(C)c1` [Example 107, (6S,9aR)-6-(4-chlorophenyl)-3-{1-[3-methoxy-4-(4-methyl-1H-imidazol-1-yl)phenyl]-(Z)-methylidene}hexahydropyrido[2,1-c][1,4]oxazin-4-one] to `COc1cc(/C=C2\OC[C@H]3COC[C@@H](c4ccc(Cl)cc4)N3C2=O)ccc1-n1cnc(C)c1` [Example 111, (6R,9aR)-6-(4-chlorophenyl)-3-[1-[3-methoxy-4-(4-methyl-1H-imidazol-1-yl)phenyl]-(Z)-methylidene]tetrahydro[1,4]oxadino[3,4-c]oxadine-4-one], the pIC50 falls from 7.11 to 6.89 (0.22 log units). The first is the more potent here.

Going from `COc1cc(/C=C2\OC[C@H]3COC[C@@H](c4ccc(F)c(F)c4)N3C2=O)ccc1-n1cnc(C)c1` [Example 109, (6R,9aR)-6-(3,4-difluorophenyl)-3-{1-[3-methoxy-4-(4-methyl-1H-imidazol-1-yl)phenyl]-(Z)-methylidene}tetrahydro[1,4]oxazino[3,4-c][1,4]oxazin-4-one] to `COc1cc(/C=C2\O[C@@H](C)CN([C@H](c3ccc(F)c(F)c3)[C@@H](C)O)C2=O)ccc1-n1cnc(C)c1` [Example 34, (Z)-(S)-4-[(1R,2R)-1-(3,4-difluorophenyl)-2-hydroxypropyl]-2-[1-[3-methoxy-4-(4-methyl-1H-imidazol-1-yl)phenyl]methylidene]-6-methylmorpholin-3-one], the pIC50 rises from 7.00 to 7.64 (0.64 log units).

Going from `Cc1cn(-c2ccc(/C=C3\CCCN([C@H](c4cc(F)c(F)c(F)c4)[C@@H](C)O)C3=O)cc2F)cn1` [Example 85, (E)-3-{1-[3-fluoro-4-(4-methyl-1H-imidazol-1-yl)phenyl]methylidene}-1-[(1R,2R)-2-hydroxy-1-(3,4,5-trifluorophenyl)propyl]piperidin-2-one] to `COc1cc(/C=C2\O[C@@H](C)CN([C@H](c3cc(F)c(F)c(F)c3)[C@@H](C)O)C2=O)ccc1-n1cnc(C)c1` [Example 26, (Z)-(S)-4-[(1R,2R)-2-hydroxy-1-(3,4,5-trifluorophenyl)propyl]-2-[1-[3-methoxy-4-(4-methyl-1H-imidazol-1-yl)phenyl]methylidene]-6-methylmorpholin-3-one], the pIC50 rises from 7.19 to 8.22 (1.03 log units). The second is the more potent here.

Going from `COc1cc(/C=C2\O[C@@H](C)CN([C@@H](C)c3cc(F)c(F)c(F)c3)C2=O)ccc1-n1cnc(C)c1` [Example 37, (Z)-(6S)-2-[1-[3-methoxy-4-(4-methyl-1H-imidazol-1-yl)phenyl]methylidene]-6-methyl-4-[(S)-1-(3,4,5-trifluorophenyl)ethyl]morpholin-3-one] to `COc1cc(/C=C2\O[C@@H](C)CN([C@@H](C)c3cc(F)nc(F)c3)C2=O)ccc1-n1cnc(C)c1` [Example 53, (Z)-(S)-4-[(S)-1-(2,6-difluoropyridin-4-yl)ethyl]-2-[1-[3-methoxy-4-(4-methyl-1H-imidazol-1-yl)phenyl]methylidene]-6-methylmorpholin-3-one], the pIC50 falls from 7.70 to 7.40 (0.30 log units). The first is the more potent here.

`COc1cc(/C=C2\O[C@@H](C)CN(Cc3ccc(F)c(F)c3F)C2=O)ccc1-n1cnc(C)c1` [Example 5, (Z)-(S)-2-[1-[3-methoxy-4-(4-methyl-1H-imidazol-1-yl)phenyl]methylidene]-6-methyl-4-(2,3,4-trifluorobenzyl)morpholin-3-one] and `COc1cc(/C=C2\O[C@@H](C)CN([C@](C)(CO)c3cc(F)c(F)c(F)c3)C2=O)ccc1-n1cnc(C)c1` [Example 36, (Z)-(S)-4-[(S)-2-hydroxy-1-methyl-1-(3,4,5-trifluorophenyl)ethyl]-2-[1-[3-methoxy-4-(4-methyl-1H-imidazol-1-yl)phenyl]methylidene]-6-methylmorpholin-3-one] are within 0.2 log units of each other in pIC50: 6.90 for the first, 6.96 for the second.

`COc1cc(/C=C2\O[C@@H](C)CN(C(C)(C)c3ccc(F)cc3)C2=O)ccc1-n1cnc(C)c1` [Example 38, (Z)-(6S)-4-[1-(4-fluorophenyl)-1-methylethyl]-2-[1-[3-methoxy-4-(4-methyl-1H-imidazol-1-yl)phenyl]methylidene]-6-methylmorpholin-3-one] and `COc1cc(/C=C2\O[C@@H](C)CN([C@H](C)c3ccc(Cl)nc3)C2=O)ccc1-n1cnc(C)c1` [Example 19, (Z)-(S)-4-[(R)-1-(6-chloropyridin-3-yl)ethyl]-2-[1-[3-methoxy-4-(4-methyl-1H-imidazol-1-yl)phenyl]methylidene]-6-methylmorpholin-3-one] are within 0.2 log units of each other in pIC50: 7.28 for the first, 7.27 for the second.

`COc1cc(/C=C2\OC(C)(C)CN([C@@H](C)c3ccnc(Cl)c3)C2=O)ccc1-n1cnc(C)c1` [Example 54, (Z)-4-[(S)-1-(2-chloropyridin-4-yl)ethyl]-2-[1-[3-methoxy-4-(4-methyl-1H-imidazol-1-yl)phenyl]methylidene]-6,6-dimethylmorpholin-3-one] and `COc1cc(/C=C2\O[C@@H](C)CN([C@@H](C)c3ccnc(Cl)c3)C2=O)ccc1-n1cnc(C)c1` [Example 51, (Z)-(S)-4-[(S)-1-(2-chloropyridin-4-yl)ethyl]-2-[1-[3-methoxy-4-(4-methyl-1H-imidazol-1-yl)phenyl]methylidene]-6-methylmorpholin-3-one] are within 0.2 log units of each other in pIC50: 7.13 for the first, 7.17 for the second.

`COc1cc(/C=C2\O[C@@H](C)CN([C@@H](C)c3ccnc(Cl)c3F)C2=O)ccc1-n1cnc(C)c1` [Example 52, (Z)-(S)-4-[(S)-1-(2-chloro-3-fluoropyridin-4-yl)ethyl]-2-[1-[3-methoxy-4-(4-methyl-1H-imidazol-1-yl)phenyl]methylidene]-6-methylmorpholin-3-one] and `COc1cc(/C=C2\OC(C)(C)CN([C@@H](C)c3ccnc(F)c3F)C2=O)ccc1-n1cnc(C)c1` [Example 58, (Z)-4-[(S)-1-(2,3-difluoropyridin-4-yl)ethyl]-2-[1-[3-methoxy-4-(4-methyl-1H-imidazol-1-yl)phenyl]methylidene]-6,6-dimethylmorpholin-3-one] are within 0.2 log units of each other in pIC50: 7.07 for the first, 7.17 for the second.
